A value given as a limit tells only on which side of the number the result lay.

In one data set the test system is nAChRs on SH-SY5Y cells. Put plainly: Desensitization of the nicotine response of SH-SY5Y cells. The class given is cell-based, human. Particulars: pretreatment 20 min, nicotine 10 µM, PNU 10 µM. On the procedure:
To measure acute changes in the average [Ca^2+]i of a population, SH-SY5Y cells were examined in the 96-well plate fluorescence reader FlexStation II (Molecular Devices) using the fluorophore Fura-2AM. SH-SY5Y (35,000 cells/well; 109,375 cells/cm^2) were seeded in maintenance culture medium in black 96-well plates with clear bottom (Corning, #3603). 24 h after seeding, maintenance medium was replaced with differentiation medium. […] The fluorescence was assessed at 37 °C in the fluorescence plate reader (FlexStation II; Molecular Devices) at two different excitation wavelengths, 340 nm for Ca^2+-bound Fura-2 and 380 nm for free Fura-2, and at 510 nm emission, every 3.1 s using bottom read settings. After 26–29 s of initial baseline recording of the fluorescence intensity, 10 µl of the compound dilution (10 times higher than the final concentration to the cells) was transferred automatically by the FlexStation II (“Flex mode”) to the cell plate wells (five wells per concentration) and the fluorescence intensity was monitored for another 150 s. The ratio of fluorescence intensity at 340/380 nm was determined and the mean values from the baseline recording before the addition of test compounds was set to zero. The acute change in the Ca^2+ influx after the addition of the compounds was quantified as the area under the curve (AUC) using the SoftMax Pro 4.8 software (Molecular Devices). […]

The next data set deals with T1, human α4β2 (LS) nAChR (Homo sapiens, UniProt P17787+P43681).
T1 construct: expressed in transfected cells; host or cells: Xenopus laevis oocytes, mRNA injection, 10 ng α4 and 1 ng β2
Briefly: Two-electrode voltage-clamp recordings, Xenopus laevis oocytes expressing human α4β2 (LS) nAChR. The class given is cell-based. The text has this:
The human α7 nAChR subunit was cloned in the pCDNA3.1 vector.
For the generation of the mRNA for injection, the plasmid DNAs of α3, α4, β2, and β4 were linearized with the NotI restriction endonuclease (New England Biolabs) and the plasmid DNA of α7 was linearized with the XbaI restriction endonuclease (New England Biolabs). The mRNAs of α3, α4, β2, and β4 were generated by in vitro transcription using the mMESSAGE mMACHINE SP6 Transcription Kit (Invitrogen). For the generation of α7 mRNA, the mMESSAGE mMACHINE T7 Transcription Kit (Invitrogen) was used. For the separation of the DNA and mRNA, a phenol–chloroform extraction (Chomczynski and Sacchi [2006]) was performed. The mRNA was then obtained by ethanol precipitation from the aqueous phase; for quantification, the BioPhotometer (Eppendorf) was used.
The recordings of human α7, α3β4, α4β2, and α4β4 nAChRs expressed in Xenopus laevis oocytes (EcoCyte Bioscience) were performed in two-electrode voltage-clamp mode using the Roboocyte2 system and the corresponding software (version 1.4.1; Multi Channel Systems MCS). Prior to the recordings, the oocytes were maintained at 19 °C in modified Barth’s solution containing [mM]: 88 NaCl, 1 KCl, 0.33 Ca(NO3)2, 0.82 MgSO4, 2.4 NaHCO3, 0.41 CaCl2, 5 Tris, 100 U/ml penicillin, 100 µg/ml streptomycin, pH 7.4.
To express human α7 nAChR, we injected 50 nl of mRNA solution (30 ng mRNA) per oocyte, using the Roboinject and the corresponding software (version 1.2.1; Multi Channel Systems MCS). […]
The baseline correction of voltage-clamp oocyte recordings was performed with the Roboocyte2 + software (version 1.4.3; Multi Channel Systems MCS, Germany). The maximal current influx and further analysis were executed in scripts written in R. In the antagonist experiments with oocytes, the maximal inward current was determined for the last response of each period (control, three antagonist concentrations, and washout).
In general terms: Two-electrode voltage clamp is typically applied to oocytes expressing channels or transporters.

The nature of data set [1]: Clearance study in a hepatocyte co-culture system. The conditions noted are these: human, hepatocytes. The text has this:
Renal clearance for DN-IMI was assumed to be governed only by passive processes, with both filtration and passive reabsorption being accounted for. Passive permeability was scaled from the predicted permeability in the intestine (Peff 0.37 10-4 cm/s) accounting for the surface area of the proximal tubules in the kidney.

A short description of data set [2]: Blood/plasma ratio and free fraction (PBTK input parameters). It counts as in vitro ADME.
Another data set relates to mice. Particulars: ref Chao and Casida [1997], Tomizawa et al. [2000], [2001]; cited from earlier work.

T1 sequence (P43681 27-627): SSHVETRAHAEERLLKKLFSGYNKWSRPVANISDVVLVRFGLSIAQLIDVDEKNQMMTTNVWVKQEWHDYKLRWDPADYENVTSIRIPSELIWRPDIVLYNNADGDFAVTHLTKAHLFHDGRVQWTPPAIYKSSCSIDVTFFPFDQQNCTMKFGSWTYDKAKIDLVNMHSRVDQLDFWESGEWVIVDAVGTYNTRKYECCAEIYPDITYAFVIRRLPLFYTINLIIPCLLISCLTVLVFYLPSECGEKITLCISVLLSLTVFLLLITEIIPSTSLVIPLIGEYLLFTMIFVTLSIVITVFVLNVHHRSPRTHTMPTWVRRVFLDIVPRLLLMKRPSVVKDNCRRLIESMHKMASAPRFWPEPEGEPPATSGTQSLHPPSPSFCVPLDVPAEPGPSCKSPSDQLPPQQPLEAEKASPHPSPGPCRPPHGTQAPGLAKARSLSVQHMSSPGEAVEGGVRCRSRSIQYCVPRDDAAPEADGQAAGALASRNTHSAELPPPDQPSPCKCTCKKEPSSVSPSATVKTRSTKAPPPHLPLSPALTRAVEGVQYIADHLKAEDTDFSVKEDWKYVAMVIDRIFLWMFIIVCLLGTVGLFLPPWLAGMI
T1 sequence (P17787 26-502): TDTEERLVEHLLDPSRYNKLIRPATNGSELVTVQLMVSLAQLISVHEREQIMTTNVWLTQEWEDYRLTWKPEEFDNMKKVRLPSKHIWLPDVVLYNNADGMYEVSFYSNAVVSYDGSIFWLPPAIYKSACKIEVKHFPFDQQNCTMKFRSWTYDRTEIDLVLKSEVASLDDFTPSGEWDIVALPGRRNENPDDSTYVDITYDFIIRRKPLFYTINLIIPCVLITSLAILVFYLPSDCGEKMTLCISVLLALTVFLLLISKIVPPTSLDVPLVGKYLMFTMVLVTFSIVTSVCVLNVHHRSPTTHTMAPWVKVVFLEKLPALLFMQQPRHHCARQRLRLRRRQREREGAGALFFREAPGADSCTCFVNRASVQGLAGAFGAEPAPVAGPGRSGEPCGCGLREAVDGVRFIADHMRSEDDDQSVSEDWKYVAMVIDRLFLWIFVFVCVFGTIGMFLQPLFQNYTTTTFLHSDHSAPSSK

Turning to `NC1=NCCN1Cc1ccc(Cl)nc1` [DN-IMI, desnitro-imidacloprid], the “effect of pretreatment on the response to nicotine in SH-SY5Y” value with nAChRs on SH-SY5Y cells is “reduced/abolished the response to nicotine in the submicromolar range”. In addition, the estimated maximum at human α4β2 (LS) nAChR (normalized to nicotine (100 µM)) is ~ 1.22. Further, the EC50 on human α4β2 (LS) nAChR (read-out: relative pEC50 (inward current amplitude) (converted)) is 5.01 µM. This compound showed an intrinsic clearance (hepatocyte CLint) in data set [1] of less than 143 µL/min/1e6 cells. In data set [2] (blood and plasma, read-out: Blood/plasma ration [B/P]), the blood plasma ratio amounted to 0.759. In addition, the fraction unbound in data set [2] (plasma, read-out: Free fraction [fu]) was 0.841. The LD50 in the data set with mice was 6 to 24 mg/kg.

As usually defined, the hepatocyte CLint is the capacity of the preparation to metabolise the compound, expressed as a volume cleared per time. A higher hepatocyte CLint goes with faster metabolism. As usually defined, the LD50 is the dose expected to kill half of the subjects tested.
